Data set [1] has as its system irradiated hypoxic V79 mammalian cells. Put plainly: Sensitisation: concentration for enhancement ratio of 1.6 in irradiated hypoxic V79 cells. Conditions: Cricetulus griseus, read-out: C1.6 (concentration required to achieve an enhancement ratio of 1.6). The format is cell-based. An excerpt:
^a Concentration required to achieve an enhancement ratio of 1.6 in
irradiated hypoxic V79 mammalian cells.

A short description of data set [2]: Toxicity, LD50, i.p. in female WHT mice. The following applies: mouse, in vivo, ip. The source says:
(§1) ^b Drugs administered i.p. to .female. WHT mice.

Data set [3] in a line: Toxicity, LD50, i.p. in male CRCD1 mice. Conditions: mouse, in vivo, ip, male CRCD1 mice (footnote c).
Description: as §1
^c For Compound of Example 1 in .male. CRCD1 mice

The subject of data set [4] is MT tumour. Put plainly: Chemosensitization (melphalan): enhancement of melphalan treatment in WHT mice bearing MT tumour (Example 3). The class given is in vivo. The following applies: i.p. before melphalan. As to the method:
(§2) In the following Examples, WHT mice in which the MT tumour has been implanted subcutaneously are administered the compound of Example 1 intraperitoneally before treatment with radiation or with the chemotherapeutic agent melphalan. The time before such treatment at which the drug is administered is such that maximum enhancement is effected. The results of treatment with radiation and the chemotherapeutic drug are set out respectively in Tables I and II together with comparison results using misonidazole (MISO) and the compound Ro-03-8799. The asterisks against the results from treatment with the latter compounds indicate that the tumours treated in these cases are intramuscular.

In data set [5] the test system is MT tumour. Put plainly: Radiosensitization: enhancement of radiation treatment in WHT mice bearing MT tumour (Example 2). The format is in vivo. The following applies: administered dose 3.8 mmoles/kg, intraperitoneal, before radiation; tumour implanted subcutaneously. As to the method: as §2
Where [6] appears, read: administered dose 0.72 mmoles/kg, * tumours intramuscular.

Molecules are shown by their SMILES. Like-named read-outs stand apart in the source and are kept apart here. A value given as a limit tells only on which side of the number the result lay.

What is called LD50 is the dose expected to kill half of the subjects tested. Read a high LD50 as a less toxic substance.

On to `C[C@@H]1[C@H](C)N1CC(O)Cn1ccnc1[N+](=O)[O-]` (relative stereo) [Example 13, 1-(2-Nitro-1-imidazolyl)-3-(2,3-dimethyl-1-aziridino)-2-propanol], for which the EC (enhancement ratio 1.6) in data set [1] (V79, light or radiation study) came out at 80 µM. Besides, the LD50 in data set [2] was ≤ 1250 µmol/kg.
Regarding `C[C@@H]1[C@@H](C)N1CC(O)Cn1ccnc1[N+](=O)[O-]` (relative stereo) [Example 14, 1-(2-Nitro-1-imidazolyl)-3-(2,3-dimethyl-1-aziridino)-2-propanol], in data set [1] (V79, light or radiation study), the EC (enhancement ratio 1.6) stood at 80 µM.
In the case of `O=[N+]([O-])c1nccn1CC(O)CN1CC1` (stereo not shown) [Example 1, 1-(2-Nitro-1-imidazolyl)-3-(1-aziridino)-2-propanol], in data set [1] (light or radiation study, irradiated hypoxic V79 mammalian cells), the EC (enhancement ratio 1.6) worked out at 100 µM. Further, in data set [3], the median lethal dose (LD50) worked out at 610 µmol/kg. Besides, the “Enhancement ratio (Chemosensitization, melphalan)” value in the data set with MT tumour [4] (administered dose 0.08 mmoles/kg, tumour implanted subcutaneously) was 3.0. In addition, the “Enhancement ratio (Radiosensitization)” value in the data set with MT tumour [5] is given as 1.7.
For the compound `CC1CN1CC(O)Cn1ccnc1[N+](=O)[O-]` (stereo not shown) [Example 4, 1-(2-Nitro-1-imidazolyl)-3-(2-methyl-1-aziridino)-2-propanol], the EC (enhancement ratio 1.6) in data set [1] (V79, light or radiation study) turned out to be 80 µM. Further, the LD50 in data set [2] was < 580 µmol/kg.
The corresponding values for `CCC1CN1CC(O)Cn1ccnc1[N+](=O)[O-]` (stereo not shown) [Example 5, 1-(2-Nitro-1-imidazolyl)-3-(2-ethyl-1-aziridino)-2-propanol] are 130 µM and 580 µmol/kg.
For `CC1(C)CN1CC(O)Cn1ccnc1[N+](=O)[O-]` (stereo not shown) [Example 7, 1-(2-Nitro-1-imidazolyl)-3-(2,2-dimethyl-1-aziridino)-2-propanol] the same measures were 80 µM and 1250 µmol/kg.
For `O=[N+]([O-])c1nccn1CC(O)CN1CC1c1ccccc1` (stereo not shown) [Example 8, 1-(2-Nitro-1-imidazolyl)-3-(2-phenyl-1-aziridino)-2-propanol], the EC (enhancement ratio 1.6) in data set [1] (V79, light or radiation study) is 300 µM.
On to `CC(C)C1CN1CC(O)Cn1ccnc1[N+](=O)[O-]` (stereo not shown) [Example 9, 1-(2-Nitro-1-imidazolyl)-3-(2-isopropyl-1-aziridino)-2-propanol], for which, in data set [1] (V79, light or radiation study), the EC (enhancement ratio 1.6) is 130 µM. Moreover, in data set [2], the LD50 was ≤ 1180 µmol/kg.
`O=[N+]([O-])c1nccn1CC(O)C(O)CN1CC1` (stereo not shown) [Example 10, 1-(2-Nitro-1-imidazolyl)-4-(1-aziridino) or substituted aziridino)-2,3-butane-diol]: the EC (enhancement ratio 1.6) in data set [1] (V79, light or radiation study) was 130 µM. Moreover, in data set [2], the LD50 was 410 µmol/kg.
For `Cc1ncc([N+](=O)[O-])n1CC(O)CN1CC1` (stereo not shown) [Example 11, 1-(2-methyl-5-nitro-1-imidazolyl)-3-(1-aziridino or substitutedaziridino)-2-propanol] the same measures were 300 µM and 800 µmol/kg.
Take `O=[N+]([O-])c1nccn1CC(O)CN1CCCCC1` (stereo not shown) [Example 8799]: the “Enhancement ratio (Chemosensitization, melphalan)” value in the data set on MT tumour [4] (setting [6]) amounted to 2.2; in the data set with MT tumour [4] (administered dose 0.72 mmoles/kg, tumour implanted subcutaneously) it was 1.9. Besides, the “Enhancement ratio (Radiosensitization)” value with MT tumour [5] was 1.3.
Turning to `COCC(O)Cn1ccnc1[N+](=O)[O-]` (stereo not shown) [MISO, misonidazole], the “Enhancement ratio (Chemosensitization, melphalan)” value with MT tumour [4] (setting [6]) is recorded as 1.7. For the same compound, the “Enhancement ratio (Radiosensitization)” value in the data set on MT tumour [5] turned out to be 1.3.

(Values after US4631289A, “Useful in radiotherapy of chemotherapy 4-aziridino-1-nitroimidazol-1-yl-2,3-butanediols” (National Research Development Corporation, priority 1982, dated 1986).)
